Here are results for 24 compounds from patent US9777005B2 (Takeda Pharmaceutical Company Limited, priority 2012, dated 2017).

This assay deals with T1, human M1 receptor (hCHRM1) (Homo sapiens, UniProt P11229).
T1 construct: expressed in transfected cells; host or cells: CHO-K1
T1 sequence (P11229 1-460): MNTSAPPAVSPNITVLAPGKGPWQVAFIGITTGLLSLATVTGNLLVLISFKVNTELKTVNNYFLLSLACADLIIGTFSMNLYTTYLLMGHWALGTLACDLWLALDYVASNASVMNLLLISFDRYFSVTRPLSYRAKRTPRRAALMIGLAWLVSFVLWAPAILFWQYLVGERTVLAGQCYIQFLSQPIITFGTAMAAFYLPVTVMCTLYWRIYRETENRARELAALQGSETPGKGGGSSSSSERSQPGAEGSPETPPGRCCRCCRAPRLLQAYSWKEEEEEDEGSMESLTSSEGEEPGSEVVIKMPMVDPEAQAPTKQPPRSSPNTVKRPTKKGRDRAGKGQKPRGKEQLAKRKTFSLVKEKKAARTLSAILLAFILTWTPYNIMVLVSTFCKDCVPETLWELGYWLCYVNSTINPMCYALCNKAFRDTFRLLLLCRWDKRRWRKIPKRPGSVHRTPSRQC
Description: Measurement of M1 receptor positive allosteric modulator (M1PAM) activity, calcium fluorescence (FLIPRtetra) in CHO-K1 cells in the presence of acetylcholine at EC20. The assay is classed as cell-based. Conditions: in the presence of acetylcholine at EC20 (final 0.6 nM), CHO-K1 cells expressing hCHRM1; for EC50: inflection point of M1PAM activity, read-out: IP value; for activity (%) at 10 μM: test compound 10 μM. A digest of the protocol: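 CHO-K1 cells expressing human M1 were loaded with Fluo-4 AM, and compound was added with acetylcholine at EC20 (final 0.6 nM). Calcium fluorescence was read on FLIPRtetra for 1 min. Activity was normalized to 1 μM acetylcholine (100%) and DMSO (0%), and the curve inflection point was reported as IP.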

Turning to `COc1cccc(F)c1Oc1nccc2c1C(=O)N(Cc1ccc(-c3cn(C)nc3C)cc1)C2` [Example 357, 2-(4-(1,3-dimethyl-1H-pyrazol-4-yl)benzyl)-4-(2-fluoro-6-methoxyphenoxy)-1,2-dihydro-3H-pyrrolo[3,4-c]pyridin-3-one], the EC50 was found to be 51 nM and the “activity (%) at 10 μM” value turned out to be 90%.

In the case of `Cc1cc(-c2ccc(CN3Cc4ccnc(Oc5c(C)cc(F)cc5F)c4C3=O)cc2)cnn1` [Example 358, 4-(2,4-difluoro-6-methylphenoxy)-2-(4-(6-methylpyridazin-4-yl)benzyl)-1,2-dihydro-3H-pyrrolo[3,4-c]pyridin-3-one], the EC50 was determined as 77 nM and the “activity (%) at 10 μM” value came to 91%.

Take `Cc1cc(F)cc(F)c1Oc1nccc2c1C(=O)N(Cc1ccc(-c3ccn(C)n3)cc1)C2` [Example 359, 4-(2,4-difluoro-6-methylphenoxy)-2-(4-(1-methyl-1H-pyrazol-3-yl)benzyl)-1,2-dihydro-3H-pyrrolo[3,4-c]pyridin-3-one]: the EC50 turned out to be 93 nM and the “activity (%) at 10 μM” value is on record as 96%.

As to `COc1cccc(F)c1Oc1nccc2c1C(=O)N(Cc1ccc(-c3cnn(C)c3)cc1)C2` [Example 360, 4-(2-fluoro-6-methoxyphenoxy)-2-(4-(1-methyl-1H-pyrazol-4-yl)benzyl)-1,2-dihydro-3H-pyrrolo[3,4-c]pyridin-3-one], the EC50 was 72 nM and the “activity (%) at 10 μM” value is listed as 105%.

Take `Cc1cc(-c2ccc(CN3Cc4ccnc(Oc5c(F)cc(F)cc5C5CC5)c4C3=O)cc2)cnn1` [Example 361, 4-(2-cyclopropyl-4,6-difluorophenoxy)-2-(4-(6-methylpyridazin-4-yl)benzyl)-1,2-dihydro-3H-pyrrolo[3,4-c]pyridin-3-one]: the EC50 was 76 nM and the “activity (%) at 10 μM” value is 100%.

Consider `Cn1cc(-c2ccc(CN3Cc4ccnc(Oc5ccc(OC(F)(F)F)cc5F)c4C3=O)cc2)cn1` [Example 362, 4-(2-fluoro-4-(trifluoromethoxy)phenoxy)-2-(4-(1-methyl-1H-pyrazol-4-yl)benzyl)-1,2-dihydro-3H-pyrrolo[3,4-c]pyridin-3-one], for which the EC50 worked out at 30 nM and the “activity (%) at 10 μM” value stood at 98%.

`Cn1cc(-c2ccc(CN3Cc4ccnc(Oc5ccc(OC(F)(F)F)cc5C#N)c4C3=O)cc2)cn1` [Example 363, 2-((2-(4-(1-methyl-1H-pyrazol-4-yl)benzyl)-3-oxo-2,3-dihydro-1H-pyrrolo[3,4-c]pyridin-4-yl)oxy)-5-(trifluoromethoxy)benzonitrile]: the EC50 stood at 6.6 nM and the “activity (%) at 10 μM” value came out at 94%.

Consider `N#Cc1cc(F)c(Oc2cccc3c2C(=O)N(Cc2ccc(-n4cccn4)cc2)C3)c(F)c1` [Example 364, 3,5-difluoro-4-((3-oxo-2-(4-(1H-pyrazol-1-yl)benzyl)-2,3-dihydro-1H-isoindol-4-yl)oxy)benzonitrile], for which the EC50 was 31 nM and the “activity (%) at 10 μM” value turned out to be 86%.

As for `Cn1ccc(-c2ccc(CN3Cc4ccnc(Oc5c(F)cc(F)cc5F)c4C3=O)cc2)n1` [Example 365, 2-(4-(1-methyl-1H-pyrazol-3-yl)benzyl)-4-(2,4,6-trifluorophenoxy)-1H-pyrrolo[3,4-c]pyridin-3(2H)-one], the EC50 stood at 44 nM and the “activity (%) at 10 μM” value was determined as 104%.

In the case of `Cn1ccc(-c2ccc(CN3Cc4ncnc(Oc5c(F)cc(F)cc5F)c4C3=O)cc2)n1` [Example 366, 6-(4-(1-methyl-1H-pyrazol-3-yl)benzyl)-4-(2,4,6-trifluorophenoxy)-6,7-dihydro-5H-pyrrolo[3,4-d]pyrimidin-5-one], the EC50 is 42 nM and the “activity (%) at 10 μM” value is given as 104%.

`Cc1cc(-c2ccc(CN3Cc4ncnc(Oc5c(F)cc(F)cc5F)c4C3=O)cc2)ccn1` [Example 367, 6-(4-(2-methylpyridin-4-yl)benzyl)-4-(2,4,6-trifluorophenoxy)-6,7-dihydro-5H-pyrrolo[3,4-d]pyrimidin-5-one]: the EC50 came out at 28 nM and the “activity (%) at 10 μM” value is given as 101%.

As for `Cc1cc(-c2ccc(CN3Cc4ccnc(Oc5ccc(C#N)cc5F)c4C3=O)cc2)ccn1` [Example 368, 3-fluoro-4-((2-(4-(2-methylpyridin-4-yl)benzyl)-3-oxo-2,3-dihydro-1H-pyrrolo[3,4-c]pyridin-4-yl)oxy)benzonitrile], the EC50 came to 10 nM and the “activity (%) at 10 μM” value amounted to 99%.

Turning to `O=C1c2c(ncnc2Oc2c(F)cc(F)cc2F)CN1Cc1ccc(-c2ccnnc2)cc1` [Example 369, 6-(4-(pyridazin-4-yl)benzyl)-4-(2,4,6-trifluorophenoxy)-6,7-dihydro-5H-pyrrolo[3,4-d]pyrimidin-5-one], the EC50 was 54 nM and the “activity (%) at 10 μM” value is 103%.

With `Cn1cc(-c2ccc(CN3Cc4ncnc(Oc5c(F)cc(F)cc5F)c4C3=O)cc2)nn1` [Example 370, 6-(4-(1-methyl-1H-1,2,3-triazol-4-yl)benzyl)-4-(2,4,6-trifluorophenoxy)-6,7-dihydro-5H-pyrrolo[3,4-d]pyrimidin-5-one], the EC50 turned out to be 14 nM and the “activity (%) at 10 μM” value is 97%.

In the case of `Cn1ccc(-c2ccc(CN3Cc4ncnc(Oc5ccc(C#N)cc5F)c4C3=O)cc2)n1` [Example 371, 3-fluoro-4-((6-(4-(1-methyl-1H-pyrazol-3-yl)benzyl)-5-oxo-6,7-dihydro-5H-pyrrolo[3,4-d]pyrimidin-4-yl)oxy)benzonitrile], the EC50 turned out to be 13 nM and the “activity (%) at 10 μM” value was 99%.

With `Cc1nn(C)cc1-c1ccc(CN2Cc3ncnc(Oc4c(F)cccc4F)c3C2=O)c(F)c1` [Example 372, 4-(2,6-difluorophenoxy)-6-(4-(1,3-dimethyl-1H-pyrazol-4-yl)-2-fluorobenzyl)-6,7-dihydro-5H-pyrrolo[3,4-d]pyrimidin-5-one], the EC50 was found to be 46 nM and the “activity (%) at 10 μM” value worked out at 109%.

As for `Cc1cc(-c2ccc(CN3Cc4ccnc(Oc5ccc(C#N)cc5F)c4C3=O)cc2)on1` [Example 373, 3-fluoro-4-((2-(4-(3-methyl-1,2-oxazol-5-yl)benzyl)-3-oxo-2,3-dihydro-1H-pyrrolo[3,4-c]pyridin-4-yl)oxy)benzonitrile], the EC50 worked out at 45 nM and the “activity (%) at 10 μM” value worked out at 103%.

With `Cn1ccc(-c2ccc(CN3Cc4ccnc(Oc5ccc(C#N)cc5F)c4C3=O)cc2)n1` [Example 374, 3-fluoro-4-((2-(4-(1-methyl-1H-pyrazol-3-yl)benzyl)-3-oxo-2,3-dihydro-1H-pyrrolo[3,4-c]pyridin-4-yl)oxy)benzonitrile], the EC50 was 16 nM and the “activity (%) at 10 μM” value turned out to be 103%.

Turning to `Cn1ccc(-c2ccc(CN3Cc4ccnc(Oc5c(F)cc(C#N)cc5F)c4C3=O)cc2)n1` [Example 375, 3,5-difluoro-4-((2-(4-(1-methyl-1H-pyrazol-3-yl)benzyl)-3-oxo-2,3-dihydro-1H-pyrrolo[3,4-c]pyridin-4-yl)oxy)benzonitrile], the EC50 came out at 10 nM and the “activity (%) at 10 μM” value is on record as 99%.

Regarding `Cc1cc(-c2ccc(CN3Cc4ccnc(Oc5c(F)cc(C#N)cc5F)c4C3=O)cc2)ccn1` [Example 376, 3,5-difluoro-4-((2-(4-(2-methylpyridin-4-yl)benzyl)-3-oxo-2,3-dihydro-1H-pyrrolo[3,4-c]pyridin-4-yl)oxy)benzonitrile], the EC50 is 6.9 nM and the “activity (%) at 10 μM” value is 106%.

In the case of `Cn1cc(-c2ccc(CN3Cc4cccc(Oc5c(F)cc(C#N)cc5F)c4C3=O)nc2)cn1` [Example 377, 3,5-difluoro-4-((2-((5-(1-methyl-1H-pyrazol-4-yl)pyridin-2-yl)methyl)-3-oxo-2,3-dihydro-1H-isoindol-4-yl)oxy)benzonitrile], the EC50 is 7.6 nM and the “activity (%) at 10 μM” value was 83%.

In the case of `Cn1cc(-c2ccc(CN3Cc4cccc(Oc5c(F)cc(C#N)cc5F)c4C3=O)cn2)cn1` [Example 378, 3,5-difluoro-4-((2-((6-(1-methyl-1H-pyrazol-4-yl)pyridin-3-yl)methyl)-3-oxo-2,3-dihydro-1H-isoindol-4-yl)oxy)benzonitrile], the EC50 is 33 nM and the “activity (%) at 10 μM” value turned out to be 98%.

Regarding `Cc1cc(-c2ccc(CN3Cc4ccnc(Oc5ccc(C(F)F)cc5F)c4C3=O)cc2)ccn1` [Example 379, 4-(4-(difluoromethyl)-2-fluorophenoxy)-2-(4-(2-methylpyridin-4-yl)benzyl)-1,2-dihydro-3H-pyrrolo[3,4-c]pyridin-3-one], the EC50 was 14 nM and the “activity (%) at 10 μM” value is listed as 90%.

Consider `Cn1ccc(-c2ccc(CN3Cc4ccnc(Oc5ccc(C(F)F)cc5F)c4C3=O)cc2)n1` [Example 380, 4-(4-(difluoromethyl)-2-fluorophenoxy)-2-(4-(1-methyl-1H-pyrazol-3-yl)benzyl)-1,2-dihydro-3H-pyrrolo[3,4-c]pyridin-3-one], for which the EC50 turned out to be 22 nM and the “activity (%) at 10 μM” value is 102%.
